For 21 compounds, GI50 results are on record in patent US20240262815A1, “HETEROARYL DERIVATIVE, METHOD FOR PREPARING SAME, AND PHARMACEUTICAL COMPOSITION COMPRISING SAME AS ACTIVE INGREDIENT” (VORONOI INC., priority 2021, published 2024).

Broadly, the GI50 is the concentration that inhibits growth by half.

The subject of experiment [1] is SK-BR-3 cancer cells. The experiment can be described thus: Inhibitory activity against proliferation of SK-BR-3 cancer cells (CellTiter-Glo). It counts as cell-based. As to conditions: Homo sapiens, SK-BR-3, 120 h, ErbB2-overexpressing SK-BR-3 cells, 120 hours after treatment. An outline of the steps: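 GI50 derived from % growth relative to control, measured by CellTiter-Glo luminescence after 120 h compound exposure (12 concentrations, 0.2 nM-5 μM final, n=3). BT-474 grown in RPMI-1640/20% FBS, SK-BR-3 in McCOY'S 5A/10% FBS; seeding 48 h pre-treatment.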
Background: Cellular ATP, detected with luciferase, serves as a proxy for viable cell number.

Experiment [2] has as its system BT-474 cancer cells. As to the kind of experiment: Inhibitory activity against proliferation of BT-474 cancer cells (CellTiter-Glo). The following applies: Homo sapiens, BT-474 ErbB2-overexpressing cancer cells, 120 hours after treatment. The format is cell-based. Here is the method: To evaluate the inhibitory activity of a compound according to the present invention against the proliferation of ErbB2-overexpressing cancer cells, the following experiment were performed.
10% FBS-added McCOY'S 5A was used for SK-BR-3 cancer cells. 20% FBS-added RPMI-1640 was used for BT-474 cancer cells. Transduced Ba/F3 cells were cultured in a RPMI-1640 medium to which 1 μg/ml puromycin (Invitrogen) was added.
48 hours before compound treatment, each type of the SK-BR-3 and BT-474 cells were seeded at 5,000 cells/well in a white clear bottom 96 well plate (Corning). The compound was diluted in dimethyl sulfoxide (SK-BR-3: 3-fold dilution, a total of 12 concentrations, BT-474: […], a total of 12 concentrations) and injected at 1 μl to have the final concentration of 0.2 nM to 5 μM. As for measurement of live cells, 120 hours after treatment with the compound, a CellTiter-Glo luminescent cell-viability reagent (Promega) was used to store the cells at room temperature for 10 minutes, followed by measurement of luminescence using a reader (SynergyNeo, Biotek). Each test was repeated three times.
The result values were calculated as a cell growth rate (%) compared to the control group. A graph was plotted using the GraphPad Prism version 8.3.0 program, and GI50 values were calculated.

For `C=CC(=O)Nc1cc(Nc2cc(N3OCC[C@@H]3c3cccc(-c4ccccc4)c3)ncn2)c(OC)cc1N(C)CCN(C)C` [Example 173, (R)-N-(5-((6-(3-([1,1′-biphenyl]-3-yl)isoxazolidin-2-yl)pyrimidin-4-yl)amino)-2-((2-(dimethylamino)-ethyl)(methyl)-amino)-4-methoxy-phenyl)acrylamide], the concentration for 50% growth inhibition (GI50) in experiment [1] and in experiment [2] was less than 50 nM in each case.
`C=CCN1CCN(c2cc(OC)c(Nc3cc(N4OCC[C@@H]4c4cccc(-c5ccccc5)c4)ncn3)cc2NC(=O)C=C)CC1` [Example 174, (R)-N-(5-((6-(3-([1,1′-biphenyl]-3-yl)isoxazolidin-2-yl)pyrimidin-4-yl)amino)-2-(4-allylpiperazin-1-yl)-4-methoxy-phenyl)acrylamide]: the GI50 in experiment [1] and in experiment [2] was less than 50 nM each time.
On to `C=CC(=O)Nc1cc(Nc2cc(N3OCC[C@@H]3c3cccc(-c4ccccc4)c3)ncn2)c(OC)cc1N1CCO[C@@H](C)C1` [Example 175, N-(5-((6-((R)-3-([1,1′-biphenyl]-3-yl)isoxazolidin-2-yl)pyrimidin-4-yl)-amino)-4-methoxy-2-((S)-2-methyl-morpholino)phen-yl)acrylamide], for which the GI50 in experiment [1] and in experiment [2] was less than 50 nM in each case.
Regarding `C=CC(=O)Nc1cc(Nc2cc(N3OCC[C@@H]3c3cccc(-c4ccccc4)c3)ncn2)c(OC)cc1N1CCO[C@H](C)C1` [Example 176, N-(5-((6-((R)-3-([1,1′-biphenyl]-3-yl)isoxazolidin-2-yl)pyrimidin-4-yl)-amino)-4-methoxy-2-((R)-2-methyl-morpholino)phen-yl)acrylamide], the GI50 in experiment [1] and in experiment [2] was less than 50 nM in each case.
Regarding `C=CC(=O)Nc1cc(Nc2cc(N3OCCC3c3cccc(-c4cnc5ccnn5c4)c3)ncn2)c(OC)cc1N1CCN(C)CC1` (stereo not drawn) [Example 201, N-(4-methoxy-2-(4-methylpiper-azin-1-yl)-5-((6-(3-(3-(pyrazolo-[1,5-a]pyrimidin-6-yl)phenyl)-isoxazolidin-2-yl)-pyrimidin-4-yl)-amino)phenyl)-acrylamide], the GI50 in experiment [1] and in experiment [2] was less than 50 nM in each case.
`C=CC(=O)Nc1cc(Nc2cc(N3OCCC3c3cccc(-c4ccc(C)s4)c3)ncn2)c(OC)cc1N(C)CCN(C)C` (stereo not drawn) [Example 213, N-(2-((2-(dimeth-ylamino)ethyl)-(methyl)amino)-4-methoxy-5-((6-(3-(3-(5-methylthio-phen-2-yl)phenyl)-isoxazolidin-2-yl)-pyrimidin-4-yl)-amino)phenyl)-acrylamide]: the concentration for 50% growth inhibition (GI50) in experiment [1] and in experiment [2] was 50 to 500 nM each time.
Consider `C=CC(=O)Nc1cc(Nc2cc(N3OCC[C@@H]3c3cccc(-c4ccccc4)c3)ncn2)c(OC)cc1N1CCN(CC)CC1` [Example 216, (R)-N-(5-((6-(3-([1,1′-biphenyl]-3-yl)isoxazolidin-2-yl)pyrimidin-4-yl)-amino)-2-(4-ethyl-piperazin-1-yl)-4-methoxyphenyl)-acrylamide], for which the GI50 in experiment [1] and in experiment [2] was less than 50 nM each time.
For the compound `C=CC(=O)Nc1cc(Nc2cc(N3OCC[C@@H]3c3cc(F)cc(Oc4ccn(C)n4)c3)ncn2)c(OC)cc1N1CCC(N2CCN(C3CC3)CC2)CC1` [Example 219, (R)-N-(2-(4-(4-cyclopropylpiper-azin-1-yl)piper-idin-1-yl)-5-((6-(3-(3-fluoro-5-((1-methyl-1H-pyr-azol-3-yl)oxy)-phenyl)isoxazol-idin-2-yl)pyrim-idin-4-yl)amino)-4-methoxyphen-yl)acrylamide], the GI50 in experiment [1] and in experiment [2] was less than 50 nM in each case.
For the compound `C=CC(=O)Nc1cc(Nc2cc(N3OCC[C@@H]3c3cc(F)cc(Oc4cccc(F)c4)c3)ncn2)c(OC)cc1N1CCN(C)[C@H](C)C1` [Example 221, N-(2-((R)-3,4-dimethylpiper-azin-1-yl)-5-((6-((R)-3-(3-fluoro-5-(3-fluorophen-oxy)phenyl)-isox-azolidin-2-yl)pyr-imidin-4-yl)-amino)-4-methoxy-phenyl)acrylamide], the GI50 in experiment [1] and in experiment [2] was less than 50 nM in each case.
On to `C=CC(=O)Nc1cc(Nc2cc(N3OCC[C@@H]3c3cccc(-c4ccc(C(F)(F)F)cc4)c3)ncn2)c(OC)cc1N1CCN(C)CC1` [Example 332, (R)-N-(4-methoxy-2-(4-methylpiper-azin-1-yl)-5-((6-(3-(4′-(trifluoro-methyl)-[1,1′-bi-phenyl]-3-yl)-isoxazolidin-2-yl)-pyrimidin-4-yl)-amino)phenyl)-acrylamide], for which the GI50 in experiment [2] is 50 to 500 nM.
Still for that read-out and setting: under `C=CC(=O)Nc1cc(Nc2cc(N3OCC[C@@H]3c3cccc(-c4ccc(C#N)cc4)c3)ncn2)c(OC)cc1N1CCN(C)CC1` [Example 333, (R)-N-(5-((6-(3-(4′-cyano-[1,1′-biphenyl]-3-yl)-isoxazolidin-2-yl)-pyrimidin-4-yl)-amino)-4-methoxy-2-(4-methylpiper-azin-1-yl)phenyl)-acrylamide] stands less than 50 nM.
Still for that read-out and setting: the value for `C=CC(=O)Nc1cc(Nc2cc(N3OCC[C@@H]3c3cccc(C(=O)Nc4ccccc4)c3)ncn2)c(OC)cc1N1CCN(C)CC1` [Example 334, (R)-3-(2-(6-((5-acrylamido-2-meth-oxy-4-(4-methyl-piperazin-1-yl)-phenyl)amino)pyr-imidin-4-yl)isox-azolidin-3-yl)-N-phenylbenzamide] was less than 50 nM.
On the same count and under the same terms, the value for `COc1cc(F)c(NC(=O)/C=C/CN(C)C)cc1Nc1cc(N2OCC[C@@H]2c2cccc(-c3cccc(F)c3)c2)ncn1` [Example 335, (R,E)-4-(dimethyl-amino)-N-(2-fluoro-5-((6-(3-(3′-fluoro-[1,1′-biphen-yl]-3-yl)isoxazol-idin-2-yl)pyrim-idin-4-yl)amino)-4-methoxyphen-yl)but-2-enamide] was less than 50 nM.
`C=CC(=O)Nc1cc(Nc2cc(N3OCC[C@@H]3c3cccc(-c4cccc(F)c4)c3)ncn2)c(OC)cc1N1CCN(CCO)CC1` [Example 336, (R)-N-(5-((6-(3-(3′-fluoro-[1,1′-biphenyl]-3-yl)-isoxazolidin-2-yl)-pyrimidin-4-yl)-amino)-2-(4-(2-hydroxyethyl)-piperazin-1-yl)-4-methoxyphenyl)-acrylamide]: the GI50 in experiment [2] was less than 50 nM.
With `C=CC(=O)Nc1cc(Nc2cc(N3OCC[C@@H]3c3cccc(-c4cccc(C)c4C)c3)ncn2)c(OC)cc1N1CCN(C)CC1` [Example 337, (R)-N-(5-((6-(3-(2′,3′-dimethyl-[1,1′-biphenyl]-3-yl)isoxazolidin-2-yl)pyrimidin-4-yl)-amino)-4-methoxy-2-(4-methylpiper-azin-1-yl)phenyl)-acrylamide], the GI50 in experiment [2] was less than 50 nM.
On the same count and under the same terms, under `C=CC(=O)Nc1cc(Nc2cc(N3OCC[C@@H]3c3cccc(-c4cccc(C(=O)OC)c4)c3)ncn2)c(OC)cc1N1CCN(C)CC1` [Example 338, methyl (R)-3′-(2-(6-((5-acrylamido-2-methoxy-4-(4-methylpiperazin-1-yl)phenyl)-amino)pyrimidin-4-yl)isoxazolidin-3-yl)-[1,1′-biphen-yl]-3-carboxylate] stands less than 50 nM.
Still for that read-out and setting: the value for `C=CC(=O)Nc1cc(Nc2cc(N3OCC[C@@H]3c3cccc(-c4cccc(F)c4)c3)ncn2)c(OC)cc1N1CCC2(CC1)COC2` [Example 339, (R)-N-(5-((6-(3-(3′-fluoro-[1,1′-biphenyl]-3-yl)-isoxazolidin-2-yl)-pyrimidin-4-yl)-amino)-4-methoxy-2-(2-oxa-7-azas-piro[3.5]nonan-7-yl)phenyl)acryl-amide] was less than 50 nM; that for `C=CC(=O)Nc1cc(Nc2cc(N3OCC[C@@H]3c3cccc(-c4cccc(F)c4F)c3)ncn2)c(OC)cc1N1CCN(C2COC2)CC1` [Example 340, (R)-N-(5-((6-(3-(2′,3′-difluoro-[1,1′-biphenyl]-3-yl)isoxazolidin-2-yl)pyrimidin-4-yl)-amino)-4-methoxy-2-(4-(oxetan-3-yl)-piperazin-1-yl)-phenyl)acrylamide] was less than 50 nM.
Still for that read-out and setting: under `C=CC(=O)Nc1cc(Nc2cc(N3OCC[C@@H]3c3cccc(-c4cccc(F)c4)c3)ncn2)c(OC)cc1N1CC2(C1)CN(C1COC1)C2` [Example 341, (R)-N-(5-((6-(3-(3′-fluoro-[1,1′-biphenyl]-3-yl)-isoxazolidin-2-yl)-pyrimidin-4-yl)-amino)-4-methoxy-2-(6-(oxetan-3-yl)-2,6-diazaspiro-[3.3]heptan-2-yl)-phenyl)acrylamide] stands less than 50 nM; under `C=CC(=O)Nc1cc(Nc2cc(N3OCC[C@@H]3c3cccc(-c4cccc(C(=O)N(C)C)c4)c3)ncn2)c(OC)cc1N1CCN(C)CC1` [Example 342, (R)-3′-(2-(6-((5-acrylamido-2-methoxy-4-(4-methylpiperazin-1-yl)phenyl)-amino)pyrimidin-4-yl)isoxazolidin-3-yl)-N,N-dimeth-yl-[1,1′-biphenyl]-3-carboxamide], less than 50 nM.
For `C=CC(=O)Nc1cc(Nc2cc(N3OCC[C@@H]3c3cccc(-c4cccc(F)c4)c3)ncn2)c(OC)cc1N1CCC2(CC1)CN(C)C2` [Example 343, (R)-N-(5-((6-(3-(3′-fluoro-[1,1′-biphenyl]-3-yl)-isoxazolidin-2-yl)-pyrimidin-4-yl)-amino)-4-methoxy-2-(2-methyl-2,7-diazaspiro[3.5]-nonan-7-yl)phen-yl)acrylamide], in experiment [2], the GI50 is less than 50 nM.
